Measured values taken from US20130331345A1, “PUERARIN HYDRATES, PREPARATION METHODS AND USES THEREOF” (priority 2010, published 2013).

What was measured:
[1] = Accelerated stability test (40° C., RH75%), sealed in penicillin bottles; format: physicochemical; conditions: for Marked content (%) / Property / Related substance (%): accelerated, 40° C.
Description: (§1) The sample of the puerarin hydrate above (prepared by method of Example 1) and anhydrous puerarin (anhydrous puerarin was prepared by: drying the hydrate as prepared in Example 1 at 90-105° C. in the presence of phosphorus pentoxide under vacuum for 24-72 hours or more to obtain an anhydrous puerarin, and the water content of anhydrous puerarin was usually lower than 1.0% as measured by Karl Fisher method) were sealed in penicillin bottles to perform accelerated stability test (chromatography conditions: chromatography column: C18 (150 mm×4.6 mm, 5 μm); mobile phase: 0.1% citric acid solution-methanol (75:25); flow rate: 1 ml/min; temperature: room temperature; detection wavelength: 250 nm). […] Hygroscopicity test was performed according to the Pharmacopoeia of the People's Republic of China: about 5 g of anhydrous puerarin and the crystalline hydrate of the present invention were taken, placed in dry watch glasses with constant weight, weighed precisely. Samples were taken separately at 0 h and 48 h of the test at 25° C. and relative humidity of 75%, and hygroscopicity weight gain percentages were calculated.

[2] = Hygroscopicity test according to the Pharmacopoeia of the People's Republic of China; format: physicochemical; conditions: 25° C., relative humidity 75%, 48 h
Description: as §1

[3] = Sticking in direct tableting of powder; format: physicochemical; conditions: tableting 200 mg of powder; printed '1-3 times or higher'
Description: In addition, the puerarin hydrate of the present invention overcomes the drawback of deliquescent property of anhydrous puerarin, so that it is not necessary to isolate air to prevent adhesion, and has good sliding property, and the manipuility for manufacturing preparations is improved. Anhydrous puerarin has sticking phenomenon when its powder is used for direct tableting. When tableting 200 mg of powder, anhydrous puerarin has a sticking amount 1-3 times or higher than that of puerarin monohydrate.

[4] = tested on: chronic ocular hypertension; assay: Effects on chronic ocular hypertension of rabbits (dexamethasone model); format: in vivo; conditions: within 24 hours, puerarin hydrate 1% (W/V), betaxolol 0.5% (W/V)
Description: Chronic Ocular Hypertension Models: 32 rabbits, half male and half female, were subjected to sub-conjunctive injection with 0.5 mg of dexamethasone under corneal limbus, once every other day, for consecutive 3 weeks, to obtain chronic ocular hypertension models, then randomly divided into physiological saline group, betaxolol group [0.5% (W/V)], puerarin hydrate group [1% (W/V)]. The maximum decrease of intraocular pressure was measured within 24 hours.

[5] = tested on: blood pressure; conditions: anesthetized dogs, injection; cited from earlier work
[6] = tested on: benzodiazepine receptor; conditions: cited from earlier work
[7] = tested on: sudden deafness; conditions: injection, within 2 weeks after administration; cited from earlier work
[8] = tested on: blood pressure and heart rate; conditions: conscious spontaneously hypertensive rats, intraperitoneal injection; cited from earlier work
[9] = molecular target: T1, β2 receptor (Cavia porcellus, UniProt Q8K4Z4); conditions: trachea strip of guinea pigs; cited from earlier work
T1 construct: trachea strip β2 receptor of guinea pigs; from tissue; host or cells: guinea pig trachea strip
T1 sequence (Q8K4Z4 whole entry): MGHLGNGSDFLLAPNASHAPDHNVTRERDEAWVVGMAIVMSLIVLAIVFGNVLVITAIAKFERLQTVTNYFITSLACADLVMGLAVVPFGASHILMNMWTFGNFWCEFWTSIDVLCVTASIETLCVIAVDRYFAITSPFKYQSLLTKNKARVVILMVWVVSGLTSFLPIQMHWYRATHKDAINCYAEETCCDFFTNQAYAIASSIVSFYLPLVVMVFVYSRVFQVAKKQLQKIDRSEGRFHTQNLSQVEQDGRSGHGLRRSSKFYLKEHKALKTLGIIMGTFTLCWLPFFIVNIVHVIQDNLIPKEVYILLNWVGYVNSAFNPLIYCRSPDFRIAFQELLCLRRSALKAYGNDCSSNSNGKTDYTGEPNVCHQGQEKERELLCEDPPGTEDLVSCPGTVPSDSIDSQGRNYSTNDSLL

[10] = tested on: ethanol intake; conditions: rats, intraperitoneal injection; cited from earlier work
[11] = tested on: intraocular pressure; conditions: ocular hypertension rabbit models induced by dexamethasone; cited from earlier work
[12] = molecular target: T2, β1 receptor (Cavia porcellus, UniProt H0W3H1); conditions: ex vivo atrial muscle of guinea pigs; cited from earlier work
T2 construct: ex vivo atrial muscle β1 receptor of guinea pigs; from tissue; host or cells: guinea pig atrial muscle, ex vivo
T2 sequence (H0W3H1 1-470): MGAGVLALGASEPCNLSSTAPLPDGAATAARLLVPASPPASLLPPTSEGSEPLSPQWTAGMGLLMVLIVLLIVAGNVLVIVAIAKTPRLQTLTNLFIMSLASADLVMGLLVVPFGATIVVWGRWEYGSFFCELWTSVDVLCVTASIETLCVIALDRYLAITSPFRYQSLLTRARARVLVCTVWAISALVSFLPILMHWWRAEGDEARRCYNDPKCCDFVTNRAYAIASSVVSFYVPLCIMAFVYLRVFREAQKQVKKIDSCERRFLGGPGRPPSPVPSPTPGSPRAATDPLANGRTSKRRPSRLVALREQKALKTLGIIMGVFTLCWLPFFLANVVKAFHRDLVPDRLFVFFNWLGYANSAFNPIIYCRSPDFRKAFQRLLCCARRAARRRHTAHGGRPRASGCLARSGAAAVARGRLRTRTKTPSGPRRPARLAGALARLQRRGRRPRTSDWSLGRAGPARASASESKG

[13] = tested on: β receptor; conditions: cited from earlier work
[14] = molecular target: T3, ACE (Rattus norvegicus, UniProt P47820); assay: Effects on inhibiting ACE activity (rat blood serum after intraperitoneal injection); format: in vivo, Wistar rats; conditions: rats, 200 mg/kg intraperitoneal
T3 construct: from tissue; host or cells: blood serum of Wistar rats
T3 sequence (P47820 36-1313): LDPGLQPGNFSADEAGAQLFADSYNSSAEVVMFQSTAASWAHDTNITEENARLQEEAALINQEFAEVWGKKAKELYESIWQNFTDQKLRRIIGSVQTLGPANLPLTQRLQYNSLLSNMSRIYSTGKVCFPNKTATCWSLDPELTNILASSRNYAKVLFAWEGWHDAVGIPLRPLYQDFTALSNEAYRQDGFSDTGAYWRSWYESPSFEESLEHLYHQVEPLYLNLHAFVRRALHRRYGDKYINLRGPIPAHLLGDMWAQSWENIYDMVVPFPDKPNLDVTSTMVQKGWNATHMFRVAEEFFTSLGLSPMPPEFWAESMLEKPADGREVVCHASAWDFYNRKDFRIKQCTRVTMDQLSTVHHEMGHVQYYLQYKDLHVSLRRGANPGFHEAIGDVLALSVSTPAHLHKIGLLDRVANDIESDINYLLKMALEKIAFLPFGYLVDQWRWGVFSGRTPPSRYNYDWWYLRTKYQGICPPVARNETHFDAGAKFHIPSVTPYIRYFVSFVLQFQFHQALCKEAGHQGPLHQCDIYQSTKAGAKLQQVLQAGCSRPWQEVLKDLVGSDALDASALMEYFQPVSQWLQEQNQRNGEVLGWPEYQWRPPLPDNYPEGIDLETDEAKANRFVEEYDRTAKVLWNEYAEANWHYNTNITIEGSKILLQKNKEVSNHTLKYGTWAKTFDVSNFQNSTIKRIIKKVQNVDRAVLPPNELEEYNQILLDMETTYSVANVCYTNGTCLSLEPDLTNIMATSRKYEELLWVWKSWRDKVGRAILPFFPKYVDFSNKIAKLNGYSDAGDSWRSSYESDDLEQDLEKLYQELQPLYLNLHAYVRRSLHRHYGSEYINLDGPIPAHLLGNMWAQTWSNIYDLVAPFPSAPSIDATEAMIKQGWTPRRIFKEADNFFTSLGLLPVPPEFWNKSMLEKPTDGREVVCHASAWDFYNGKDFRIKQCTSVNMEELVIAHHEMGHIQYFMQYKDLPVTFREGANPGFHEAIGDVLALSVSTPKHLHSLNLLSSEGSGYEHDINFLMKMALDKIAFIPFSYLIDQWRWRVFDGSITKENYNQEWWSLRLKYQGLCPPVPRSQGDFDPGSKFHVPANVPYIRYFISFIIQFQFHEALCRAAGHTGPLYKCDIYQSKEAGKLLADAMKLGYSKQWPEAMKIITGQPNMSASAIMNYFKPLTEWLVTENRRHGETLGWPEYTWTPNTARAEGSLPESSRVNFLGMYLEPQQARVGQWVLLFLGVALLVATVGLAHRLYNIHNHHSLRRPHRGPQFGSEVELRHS
Description: 24 Wistar rats, 280-300 g, were randomly divided into 3 groups, 8 rats per group, one group was control group, other two groups were separately 100 mg/kg, 200 mg/kg dose groups (which was added with cosolvent to form an injectable solution), subjected to intraperitoneal injection, the control group was administered with physiological saline. 60 min after administration, the rats were anesthetized with 1% pentobarbital sodium, subjected to thoracotomy and blood sample was taken from heart, the blood sample stood at room temperature for 30 min, centrifuged under 3500 r/min at low temperature for 10 min, the supernatant was taken and stored at about −65° C., for test. Measurement of ACE activity: referring to document [WANG, Fumin, et al, Chinese Journal of Laboratory Medicine, 1983, 6(3):145-151], the results were subjected to statistical treatment: the results were expressed in x±S, and data were subjected to analysis of variance and t-test.

With `O=c1c(-c2ccc(O)cc2)coc2c([C@@H]3O[C@H](CO)[C@@H](O)[C@H](O)[C@H]3O)c(O)ccc12` [Anhydrous puerarin, reference compound] the “Increase of related substance, 6 month results compared to 0 month results” value ([1]; accelerated test 40° C., compared with puerarin monohydrate) was “higher increase”, the “Hygroscopicity compared with the hydrate of the present invention” value [2] was “much higher” and the “In comparison with 0 h, weight gain, %” value [2] was 4.26%. For the same compound, the “Sticking amount relative to puerarin monohydrate” value [3] was 1-3 times.
In the case of `CC(C)NCC(O)COc1ccc(CCOCC2CC2)cc1` (stereo not shown) [Betaxolol, reference compound], the “Maximum decrease of intraocular pressure (mmHg)” value (shortened to “Maximum decrease”) [4] was 1.9 mmHg.
In the case of `O=c1c(-c2ccc(O)cc2)coc2c([C@@H]3O[C@H](CO)[C@@H](O)[C@H](O)[C@H]3O)c(O)ccc12` [Puerarin, 8-β-D-glucopyranosyl-4′,7-dihydroxylisoflavone], the Blood pressure [5] is given as “rapid dose-dependent decrease”, the “Activity at benzodiazepine receptor” value [6] is given as “antagonist or partial agonist” and the “Patients with good state of nail fold microcirculation and improved audition” value [7] is given as 70%. For the same compound, the “Blood pressure and heart rate” value [8] was “significantly reduce”, the “Action on β2 receptor” value [9] was “relatively great concentration is required” and the Ethanol intake [10] was “significantly reduce”. The Intraocular pressure [11] was “reduce”, the “Action on β1 receptor” value [12] was “significant antagonistic action” and the “Effect on activation function of adrenalin on adenylate cyclase” value [13] was “completely inhibit”.
For `O=c1c(-c2ccc(O)cc2)coc2c([C@@H]3O[C@H](CO)[C@@H](O)[C@H](O)[C@H]3O)c(O)ccc12` [Sample 2, puerarin monohydrate], the “Maximum decrease” value ([4]; monohydrate) was 2.4 mmHg.
For `O=c1c(-c2ccc(O)cc2)coc2c([C@@H]3O[C@H](CO)[C@@H](O)[C@H](O)[C@H]3O)c(O)ccc12` [Sample 3, puerarin monohydrate], the inhibition at 200 mg/kg ([14]; rat, ip, vs control group, read-out: inhibition rate (%)) was 51% and the “ACE (IU)” value ([14]; blood taken 60 min after administration) was 26.7 ± 6.35 IU.
For `O.O=c1c(-c2ccc(O)cc2)coc2c([C@@H]3O[C@H](CO)[C@@H](O)[C@H](O)[C@H]3O)c(O)ccc12.O=c1c(-c2ccc(O)cc2)coc2c([C@@H]3O[C@H](CO)[C@@H](O)[C@H](O)[C@H]3O)c(O)ccc12` [Sample 5, puerarin 0.5 hydrate], the “Marked content (%)” value ([1]; sampling time 0 month) was 99.1%, the Property ([1]; sampling time 0 month) was “off-white powder” and the “Related substance (%)” value ([1]; sampling time 0 month) was under 2%. For the same compound, the “Marked content (%)” value ([1]; sampling time 1 month) was 99.2%, the Property ([1]; sampling time 1 month) was “off-white powder” and the “Related substance (%)” value ([1]; sampling time 1 month) was under 2%. The “Marked content (%)” value ([1]; sampling time 2 month) was 99.2%, the Property ([1]; sampling time 2 month) was “off-white powder” and the “Related substance (%)” value ([1]; sampling time 2 month) was under 2%. For the same compound, the “Marked content (%)” value ([1]; sampling time 3 month) was 99.0%, the Property ([1]; sampling time 3 month) was “off-white powder” and the “Related substance (%)” value ([1]; sampling time 3 month) was under 2%. For the same compound, the “Marked content (%)” value ([1]; sampling time 6 month) was 98.9%, the Property ([1]; sampling time 6 month) was “off-white powder” and the “Related substance (%)” value ([1]; sampling time 6 month) was under 2%. The “In comparison with 0 h, weight gain, %” value [2] was 1.51% and the “Maximum decrease” value [4] was 2.5 mmHg.
